Assay results taken from US20200085979A1, “PRECISION MEDICINE THERANOSTICS AND DIAGNOSTICS A COMBINATION THEREOF” (priority 2018, published 2020).

Experiments:
HER2+ breast cancer = assay: human PET study versus [18F] Fludeoxyglucose PET scan in an HER2+ breast cancer patient; type: in vivo
αvβ3 and αvβ5 integrin = assay: comparison of the αvβ3 and αvβ5 integrin antagonist peptidomimetic with an αvβ3 integrin peptide in nude mice, same chelator and radionuclide; type: in vivo; conditions: versus αvβ3 integrin peptide
Description: Embodiments of the present invention also utilize the therapeutic compounds of the invention in conjunction with a diagnostic. Compounds containing αvβ3/αvβ5 anti-integrin antagonist peptidomimetic, displaying a selective affinity for the HER2+ protein, vitronectin, fibronectin, tenascin, reelin, kindlin, talin or combination thereof for the diagnosis or prognosis of disorders using PET, SPECT and MRI or combinations by administering an effective amount of activity thereof to a subject, particularly for the diagnosis of diseases related to metastasis and angiogenesis such as breast cancer, lung cancer, ovarian cancer, gastric cancer, esophageal cancer, blood borne cancers, musculoskeletal tumors, melanoma, head and neck cancer, human glioma, cervical cancer, vascular restenosis, osteoporosis, rheumatoid arthritis. […] The compounds referred to may be radiotracers for nuclear medicine, such as the Gallium-68 or Fluorine-18, […], Copper-64, or Technetium-99m, covalently bound to a spacer, chelator, directly to the peptidomimetic, to a nanoparticle or to more than one amino acid unit of the peptidomimetic. Other radiotracers are those reported in the publication Radionuclide Peptide Cancer Therapy, edited by M. Chinol and G. Paganelli, Taylor and Francis CRC Press, 2006. […]

## 4-[2-(3,4,5,6-tetrahydropyrimidine-2-ylamino)ethyloxy]benzoyl-2-[N-(3-aminoneopenta-1-carbamyl)]-aminoethylsulfonyl-amino-β-alanine [integrin antagonist peptidomimetic]
HER2+ breast cancer
  tumors distant from the primary detected: 25 tumors
αvβ3 and αvβ5 integrin
  affinity for the targeted organs relative to the comparator αvβ3 integrin peptide: three to seven times better
